Experimental data published in US10118943B2, “Compounds and methods for inhibiting cell death” (Ramot at Tel-Aviv University Ltd., priority 2012, dated 2018).
“Also recorded” adds a separate entry of the source.

Assays:
PC12 cells [1] = assay: PC12 cell survival assay, zinc toxicity, MTS (Example 1); conditions: 400 μM zinc, 4 hrs, peptide 10^−9M
Protocol: PC12 cells (Pheochromocytoma cells) (ATCC, Bethesda, Md., USA) were seeded at 3×10^4 cells/cm^2 on poly-L-Lysine coated plastic tissue culture dishes (Corning, Lowell, Mass., USA) to form an adherent monolayer. Cells were maintained in Dulbecco's modified Eagle's medium (DMEM) supplemented with 10% horse serum (HS), 5% fetal calf serum (FCS), 2 mM glutamine, 100 U/ml penicillin and […] streptomycin (Biological Industries, Beit Haemek, Israel). PC12 differentiation was induced by nerve growth factor (NGF, Sigma) at concentrations of 50 ng/ml by replacing half of the medium every other day until the cells acquired a differentiated morphology. Differentiated cells were defined as bearing two or more neurites with lengths equal to or more than twice the diameter of the cell body (P. Lamoureux et al., The Journal of cell biology 110, 71 (January, 1990)). The cells were incubated in 5% CO2 in a humidified incubator at 37° C. The cells were sub-cultured every 5 days at a 4:1 split ratio by pipetting. The medium was changed every 2 or 3 days after adhesion.
Transfections were performed using Lipofectamine RNAiMAX (Invitrogen). Transfection was carried out according to manufacturer's protocol. For rat MAPRE3 knockdown, PC12 cells or neurons were plated in growth medium without antibiotics at concentration of 10^4 cells/0.32 cm^2 such that they will be 30-50% confluent at the time of transfection. To obtain the highest transfection efficiency and low non-specific effects, siRNA transfection was performed in the following optimized conditions: 50 nM for neurons and 25 nM PC12 of each siRNA construct with 0.2 μl Lipofectamine RNAiMAX (Invitrogen) was added per well of the 96-well plate and scaled up for different 24 or 6-well plates, according to the manufacturer's instructions. The medium was changed one day after transfection. 48 and 72 hours later, cells were harvested to assay for gene knockdown at the RNA and protein levels.
The cells were incubated for 4 hrs at 37° C. 5% CO2. Survival was measured using the MTS assay.
Metabolic activity of cells was measured by the CellTiter 96® Aqueous Non-Radioactive Cell Proliferation kit in accordance with the manufacturer's instructions (Promega). The assay uses a colorimetric method for determining the number of viable cells employing a tetrazolium compound [3-(4,5-dimethylthiazol-2-yl)-5-(3-carboxymethoxyphenyl)-2-(4-sulfophenyl)-2H-tetrazolium, MTS] and an electron-coupling reagent, phenazine methosulfate (PMS). MTS is bio-reduced by cells into a formazan product that is detected at 490 nm. The conversion of MTS into the formazan form is accomplished by dehydrogenase enzymes found in metabolically active cells. Thus, the quantity of formazan product as measured by the amount of 490 nm absorbance is directly proportional to the number of living cells in culture (A. H. Cory, T. C. Owen, J. A. Barltrop, J. G. Cory, Cancer Commun 3, 207 (July, 1991)).

primary cortical neurons = assay: PSD-95 density in primary cortical neuron culture; format: cell-based, rat; conditions: neurons treated for 2 hrs
Protocol: Methods: 1. Primary cultures of neurons were prepared as follows. Newborn rats were sacrificed on postnatal day 1. Cerebral cortex tissue was then dissected and dissociated individually from each pup with the Papain Dissociation System (PDS; Worthington Biochemical Corporation) according to the manufacturer's instructions. 2. Cells were fixed with ice cold methanol, blocked with 2% bovine serum albumin (BSA) and 5% normal goat serum in Tris buffered saline containing tween 20 (TBS-T; 20 mM Tris pH 7.5, 136.8 mM NaCl, and 0.05% v/v Tween 20), and incubated with primary antibody followed by the appropriate secondary antibody. 3. Primary antibodies that were used include: monoclonal anti PSD-95 (ab-2723, Abcam), monoclonal anti Tyr-α-tubulin antibody (YL1/2) (VMA1864, Abcys, Paris, France), polyclonal anti Glu-α-tubulin antibody (L4) (AbC0101, Abcys, Paris, France), DyLight 488-labeled secondary goat anti-mouse IgG, DyLight 633-labeled secondary goat anti-rabbit IgG (KPL, Gaithersburg, Md., USA), Cy3-conjugated secondary goat anti-Rat IgG, (Jackson ImmunoResearch). 4. Images were collected with a Leica SP5 confocal laser scanning microscope (Mannheim, Germany) with 63× oil immersion optics, laser lines at 488, 561, 633 nm. Identical confocal laser scanning microscopy (CLSM) parameters (e.g., scanning line, laser light, gain, and offset etc.) were used for control and NAP treated cells.
For instance, a PSD-95 expression assay using primary cortical neuron cultures established from suitable animals may be performed to confirm a compound's activity in promoting cell plasticity. More specifically, primary cultures of neurons are prepared by first taking cerebral cortex tissue from newborn rats on postnatal day 1. The cerebral cortex tissue is then dissected and dissociated individually from each animal. Cells are fixed with ice cold methanol, blocked (e.g., with bovine serum albumin (BSA) and normal goat serum), and incubated with primary antibody (e.g., monoclonal antibody against PSD-95), optionally followed by the appropriate secondary antibody for imaging purposes. Images of primary neuronal cultures are taken and compared between cultures with or without being exposed to a test compound. An increased PSD-95 expression is indicative of the test compound being capable of promoting or protecting cell plasticity, especially neuronal plasticity.
Cerebral cortex tissue from newborn rats was dissected and dissociated individually from each pup with the Papain Dissociation System (PDS), (Worthington Biochemical Corporation) according to the manufacturer's instructions. Cortical neurons were maintained in Neurobasal medium (NB), (Gibco) supplemented with NeuroCult B27-SM1 ([…]), 1% Glutamax (Gibco), and grown on poly-D-lysine-coated cell culture glass cover slips.
Images were collected with a Leica SP5 confocal laser scanning microscope (Mannheim, Germany) with 63× oil immersion optics, laser lines at 488, 561, 633 nm or with LSM 510 META (Zeiss, Jena, Germany) confocal laser scanning microscope with 63× oil immersion optics, laser lines at 488, 568, 633 nm. When comparing fluorescence intensities, identical CLSM parameters (e.g., scanning line, laser light, gain, and offset etc.) were used. All of the fluorescent signals acquired were above the autofluorescent background as measured from a control slide stained with secondary antibody without a primary antibody. To compare the relative levels of protein expression, the average integrated density (AID) image analysis procedure was used for cell immunostains. In brief, integrated density is defined by the sum of the values of the pixels in the selected region of interest (ROI). This is equivalent to the product of Area and Mean Gray Value. AID for the positive stained area was determined by measuring the fluorescent intensity of the ROI, which is above the positive cut-off intensity. […]

[2] = target: T1, full-length human EB3 recombinant protein (Homo sapiens, UniProt Q9UPY8); assay: Sulfolink coupling gel-NAP affinity chromatography with recombinant EB3, western analysis; format: binding; conditions: 2 mg soluble peptide incubated with recombinant EB3 and column beads
T1 construct: Full-length human EB3 was subcloned into pEX-N-His vector; 6xHis (N, cleaved yes); made in house; host or cells: E. coli BL21(DE3)
Protocol: Column load, flow through, wash and elution fractions were further analyzed by polyacrylamide gel electrophoresis, followed by western analysis with EB3 antibodies. […] Column chromatography, elution and western blots were performed as above. The extract fractions (flow, wash and elution) were separated by electrophoresis followed by protein detection (FIG. 6).

astrocytes = assay: MT organization in astrocytes (FIG. 14); format: cell-based, rat
Protocol: Newborn rats (Harlan, Jerusalem, Israel) were sacrificed by decapitation, and the brain was removed (D. E. Brenneman et al., J Pharmacol Exp Ther 309, 1190 (June, 2004)). The tissue was minced with scissors and placed in Hank's balanced salts solution 1 (S1), containing HBSS (Biological Industries, Beit Haemek, Israel), 15 mM HEPES buffer, pH 7.3 (Biological Industries, Beit Haemek, Israel), and 0.25% trypsin (Biological Industries) in an incubator at 37° C. 5% CO2 for 20 min. The cells were then placed in 5 mL of solution 2 (S2) containing 10% heat inactivated fetal serum (Biological Industries), 0.1% gentamycin sulphate solution (Biological Industries), and 0.1% penicillin-streptomycin-nystatin solution (Biological Industries) in Dulbecco's modified Eagle's medium (DMEM, Sigma, Rehovot, Israel). The cells were allowed to settle and are then transferred to a new tube containing 2.5 mL of S2 and triturated using a Pasteur pipette. Cell density was determined using a hemocytometer (Neubauer Improved, Germany) and 15×10^6 cells/15 mL S2 are inoculated into each 75-cm^2 flask (Corning, Corning, N.Y., USA). Cells are incubated at 37° C. 10% CO2. The medium was changed after 24 h, and cells are grown until confluent.
The flasks were shaken to dislodge residual neurons and oligodendrocytes that may be present. Flasks were then washed with 10 mL cold HBSS×1, HEPES 15 mM. 5 mL of versene-trypsin solution (BioLab, Jerusalem, Israel) were added to each flask, and the flasks are incubated at room temperature for 5 min to remove astrocytes. The flasks were shaken to dislodge the cells. The versenetrypsin solution was neutralized with 5 mL of S2. The cell suspension was collected and centrifuged at 100 g for 10 min. The supernatant was removed and the cells resuspended in S2. Cells were inoculated into 75-cm^2 flasks or plated in 35-mm dishes (Corning, Corning, N.Y., USA) and incubated until confluence at 37° C. 10% CO2. […]

PC12 cells [3] = conditions: ZnCl2 400 μM, peptide 10^−13M
Protocol: FIG. 15: Rat pheochromocytoma cells (PC12) were seeded on Poly-D-Lysine coated 96-well tissue culture dishes in high concentration (30,000 cells/well). On the day of the experiment the cells were treated with ZnCl2 (400 μM) either alone or in combination with different concentration of SKIP for 4 h. After 4 h the cell viability was analyzed by MTS assay. […] All values are from one experiment performed in hexplicate.
Rat pheochromocytoma cell (PC12, ATCC, Bethesda, Md., USA) were grown in 10-cm tissue culture dishes (Corning). The base medium for this cell line was RPMI-1640 Medium (Invitrogen) supplemented with 10% heat-inactivated horse serum, 5% fetal bovine serum and solution containing 100 U/ml penicillin together with […] streptomycin (Biological Industries, Beit Haemek, Israel). The cells were incubated in 95% air; 5% CO2 in a humidified incubator at 37° C. The medium was changed every 2 to 3 days. The cells were subcultured when cell density reached 4×10^6 cells/ml. The cells were split in a ratio of 1:4.
On the day before the experiment cells were to be harvested, re-suspended and seeded on tissue culture dishes. For cell viability measurements, cells were seeded on Poly-D-Lysine coated 96-well tissue culture dishes (Sigma-Aldrich) at a concentration of 3×10^4 cells/well.
The cell viability is measured by colorimetric method that determines the number of viable cells in culture. This method is based on the bio-reduction of the tetrazolium compound [3-(4,5-dimethylthiazol-2-yl)-5-(3-carboxymethoxyphenyl)-2-(4-sulfophenyl)-2H-tetrazolium; MTS] by living cells into a colored formazan product. This reaction is occurring in the presence of an electron coupling reagent (phenazine ethosulfate; PES). The amount of formazan product is measured by ELISA plate reader at 490 nm and is directly proportional to the number of living cells in culture (CellTiter 96® AQueous One Solution Cell Proliferation Assay; Promega, Madison, Wis., USA).

T1 sequence (Q9UPY8 whole entry): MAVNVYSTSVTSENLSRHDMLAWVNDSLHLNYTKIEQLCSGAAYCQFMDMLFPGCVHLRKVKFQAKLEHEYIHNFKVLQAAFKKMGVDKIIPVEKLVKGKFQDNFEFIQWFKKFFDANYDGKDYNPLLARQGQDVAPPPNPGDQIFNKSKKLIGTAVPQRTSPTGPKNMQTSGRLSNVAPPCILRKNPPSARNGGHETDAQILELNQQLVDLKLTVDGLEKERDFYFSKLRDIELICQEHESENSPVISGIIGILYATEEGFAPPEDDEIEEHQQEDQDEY

Acetyl-NAPVSKIPQ-NH2 (Ac-NAPVSKIPQ-NH2)
protection against cell death induced by zinc toxicity (MTS survival) (PC12 cells [1]): provided protection against zinc toxicity | protection against cell death induced by zinc toxicity (MTS survival) (PC12 cells [1]; listed as Ac-SKIP): significantly increased survival | protection against cell death induced by zinc toxicity (MTS survival) (PC12 cells [1]; listed as Acetyl-NAPVSKIPQ): significantly increased survival

NAPVAAAAQ [negative control peptide]
derivative peptides effect on PSD-95 density vs vehicle controls (FIG. 10c) (primary cortical neurons): did not enhance PSD-95 staining; also recorded: not affected | competition for EB3 binding to column-bound NAP [2]: no competition

NAPVAIPQ [NAPVAIPQ (S5A)]
activity of NAP-like peptide (FIG. 14) (astrocytes): inactive

NAPVSAIPQ [negative control peptide]
derivative peptides effect on PSD-95 density vs vehicle controls (FIG. 10c) (primary cortical neurons): did not enhance PSD-95 staining; also recorded: not affected | competition for EB3 binding to column-bound NAP [2]: no competition

NAPVSGIPQ (synthetic novel peptide core sequence derived from hybrid microtubule end-binding protein 3 (EB3)-binding microtubule plus-end tracking proteins (+TIPs) and activity- dependent neurotrophic factor (ADNF) active core site (NAP)) [NAPVSGIPQ (SEQ ID NO:5)]
protection against Zn toxicity (MTS viability vs Zn alone) (PC12 cells [3]): showed protection

NAPVSIAQ [NAPVSIAQ (P7A)]
activity of NAP-like peptide (FIG. 14) (astrocytes): inactive | effect on MT organization (astrocytes; 4 hours of incubation): did not mimic NAP activity

NAPVSRIPQ
protection against cell death induced by zinc toxicity (MTS survival) (PC12 cells [1]): inactive

NAPVTRIPQ
protection against cell death induced by zinc toxicity (MTS survival) (PC12 cells [1]): inactive
